Data on four compounds can be found in ChEMBL document CHEMBL4390636, “Synthesis, spectroscopic characterization, molecular docking and theoretical studies (DFT) of N-(4-aminophenylsulfonyl)-2-(4-isobutylphenyl) propanamide having potential enzyme inhibition applications” (Bioorg Med Chem, 2019).

Molecules are shown by their SMILES.

For series [1], the target named is T1, Acetylcholinesterase (Homo sapiens, UniProt P22303). Kind of series: Inhibition of AChE (unknown origin) at 0.5 mM using […] as substrate by Ellman method relative to untreated control.
T1 sequence (P22303 whole entry): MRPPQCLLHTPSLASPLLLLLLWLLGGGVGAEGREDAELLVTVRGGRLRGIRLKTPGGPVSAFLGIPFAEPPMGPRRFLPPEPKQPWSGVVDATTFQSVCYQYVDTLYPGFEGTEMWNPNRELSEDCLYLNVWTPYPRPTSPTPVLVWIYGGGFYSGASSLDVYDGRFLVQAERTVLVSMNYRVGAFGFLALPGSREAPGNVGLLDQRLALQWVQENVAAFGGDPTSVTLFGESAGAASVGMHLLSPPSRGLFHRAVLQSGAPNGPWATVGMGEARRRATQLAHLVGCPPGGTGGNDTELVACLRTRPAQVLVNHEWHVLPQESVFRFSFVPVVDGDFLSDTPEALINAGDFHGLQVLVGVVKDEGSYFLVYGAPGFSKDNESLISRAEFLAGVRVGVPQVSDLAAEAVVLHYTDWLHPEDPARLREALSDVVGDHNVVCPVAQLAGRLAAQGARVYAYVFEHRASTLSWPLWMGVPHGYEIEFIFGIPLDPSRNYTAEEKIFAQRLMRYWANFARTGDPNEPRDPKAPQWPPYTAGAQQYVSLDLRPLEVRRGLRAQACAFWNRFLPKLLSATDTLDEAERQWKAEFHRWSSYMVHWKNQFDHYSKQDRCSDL
The target in series [2] is T2, Cholinesterase (Homo sapiens, UniProt P06276). Nature of the series: Inhibition of BuChE (unknown origin) using butyrylthiocholine bromide as substrate by Ellman method.
T2 sequence (P06276 whole entry): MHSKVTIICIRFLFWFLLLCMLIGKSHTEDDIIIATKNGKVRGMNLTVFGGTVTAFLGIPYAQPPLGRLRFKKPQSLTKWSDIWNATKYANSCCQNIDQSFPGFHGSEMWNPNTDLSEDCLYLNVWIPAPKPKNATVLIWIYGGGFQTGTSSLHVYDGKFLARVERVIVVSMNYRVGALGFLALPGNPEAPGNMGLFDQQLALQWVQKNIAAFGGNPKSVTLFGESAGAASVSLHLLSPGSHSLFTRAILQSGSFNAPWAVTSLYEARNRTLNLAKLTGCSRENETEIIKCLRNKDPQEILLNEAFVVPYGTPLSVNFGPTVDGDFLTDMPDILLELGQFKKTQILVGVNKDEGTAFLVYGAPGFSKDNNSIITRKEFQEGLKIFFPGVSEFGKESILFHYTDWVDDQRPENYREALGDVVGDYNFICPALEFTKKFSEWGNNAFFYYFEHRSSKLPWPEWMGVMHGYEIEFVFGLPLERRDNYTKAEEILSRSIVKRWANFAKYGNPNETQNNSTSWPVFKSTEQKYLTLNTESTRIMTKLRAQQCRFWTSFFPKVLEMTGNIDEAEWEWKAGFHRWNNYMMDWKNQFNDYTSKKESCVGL
The target of series [3] is T2, Cholinesterase. Nature of the series: Inhibition of BuChE (unknown origin) at 0.5 mM using butyrylthiocholine bromide as substrate by Ellman method relative to untreated control. On the technique in general: DTNB colorimetry detects thiols as they appear.
Series [4] relates to Rattus norvegicus. Nature of the series: Anti-ulcer activity in Wistar rat model of ethanol-induced gastric ulcer model assessed as ulcer area at 50 mg/kg, po dosed 1 hr before ethanol injection relative to untreated control. In kind it is functional.
Series [5] has as its system Rattus norvegicus. Kind of series: Anti-inflammatory activity in Wistar rat assessed as inhibition of kaolin paw edema at 50 mg/kg, po dosed 1 hr before kaolin injection and measured 4 hrs after kaolin injection relative to untreated control. It counts as functional.
Series [6] in a line: Antioxidant activity assessed as DPPH free radical scavenging activity at 0.25 mM relative to untreated control. In kind it is functional. A general note: DPPH is a stable violet radical that fades when it is reduced.
Series [7] in a line: Antioxidant activity assessed as DPPH free radical scavenging activity at 0.5 mM relative to untreated control. It counts as functional.
The target of series [8] is T1, Acetylcholinesterase. Kind of series: Inhibition of AChE (unknown origin) using […] as substrate by Ellman method.
Series [9] in a line: Toxicity in orally dosed Wistar rat monitored every hour for 12 hrs and then every day for 14 days. In kind it is organism-based. The settings on record: in vivo, po.
In series [10] the target is T3, Polyunsaturated fatty acid 5-lipoxygenase (Homo sapiens) (UniProt P09917).
T3 sequence (whole entry): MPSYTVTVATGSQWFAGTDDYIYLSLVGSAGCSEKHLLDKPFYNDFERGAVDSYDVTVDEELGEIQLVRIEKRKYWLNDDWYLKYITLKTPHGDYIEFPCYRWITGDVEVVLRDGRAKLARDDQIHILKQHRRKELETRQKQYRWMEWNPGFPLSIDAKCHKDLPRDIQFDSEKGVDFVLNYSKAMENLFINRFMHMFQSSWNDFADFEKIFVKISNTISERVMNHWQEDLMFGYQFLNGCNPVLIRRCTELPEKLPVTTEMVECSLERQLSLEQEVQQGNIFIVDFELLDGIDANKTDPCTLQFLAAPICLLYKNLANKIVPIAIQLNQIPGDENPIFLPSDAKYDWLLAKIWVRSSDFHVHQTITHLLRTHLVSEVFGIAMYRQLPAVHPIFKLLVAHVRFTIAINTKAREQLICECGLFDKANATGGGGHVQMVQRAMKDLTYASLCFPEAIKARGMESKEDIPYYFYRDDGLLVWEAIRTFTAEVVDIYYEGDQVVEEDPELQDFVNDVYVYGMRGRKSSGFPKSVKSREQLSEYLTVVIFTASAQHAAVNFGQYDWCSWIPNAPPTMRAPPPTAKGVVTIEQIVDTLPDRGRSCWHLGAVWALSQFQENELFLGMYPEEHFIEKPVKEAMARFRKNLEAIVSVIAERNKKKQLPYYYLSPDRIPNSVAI
Nature of the series: Inhibition of 5-LOX (unknown origin) relative to untreated control. The settings on record: concentration not given here.

In general, inhibition refers to the share of the control response that was lost under treatment. As usually defined, the inhibition in vivo is the share of the control response that was lost under treatment. Usually LD50 stands for the dose expected to kill half of the subjects tested. Low values mean greater toxicity, high ones lower toxicity.

Consider `Nc1ccc(S(N)(=O)=O)cc1` [SULFANILAMIDE], for which the inhibition is 10.2% against Acetylcholinesterase [1] and 5.19% at Cholinesterase [3]. Also, the IC50 against Cholinesterase [2] was found to be 138.79 µmol. The Activity with Rattus norvegicus [4] is 10%. Further, the inhibition in vivo at 50 mg/kg in the series with Rattus norvegicus [5] was 10%.

With `O=c1c(O)c(-c2ccc(O)c(O)c2)oc2cc(O)cc(O)c12` [QUERCETIN], the IC50 in series [6] is 16.96 µmol. For the same compound, the inhibition in series [7] was found to be 93.2%.

On to `CC(C)Cc1ccc(C(C)C(=O)NS(=O)(=O)c2ccc(N)cc2)cc1` (stereo not given), for which the values for the inhibition (at Acetylcholinesterase [1]; at Cholinesterase [3]; in series [10]) were 47.2%, 65.9% and 48.4%, respectively. Also, the IC50 is < 600 µmol against Acetylcholinesterase [8] and 214.41 µmol against Cholinesterase [2]. Further, the Activity in the series with Rattus norvegicus [4] is listed as 8%. In addition, the inhibition in vivo at 50 mg/kg in the series with Rattus norvegicus [5] stood at 75%. The same compound came in with a 50% lethal dose (LD50) at 14 days in series [9] of 4050 mg/kg.

On to `CC(C)Cc1ccc(C(C)C(=O)O)cc1` (stereo not given) [IBUPROFEN], for which the inhibition against Acetylcholinesterase [1] is 61.2%; against Cholinesterase [3], 35.5%; in [7] it was 11.3%; in series [10] it was 42.5%. Besides, the IC50 against Acetylcholinesterase [8] is 235.11 µmol; on Cholinesterase [2], < 600 µmol; in series [6] it was < 500 µmol. In the series on Rattus norvegicus [4], the Activity was 35%. Besides, the inhibition in vivo at 50 mg/kg in the series with Rattus norvegicus [5] was 45%. The compound further had an LD50 at 14 days in [9] of 630 mg/kg.
